Measurements: US20180214400A1, “THE USE OF KAURANES COMPOUNDS IN THE MANUFACTURE OF MEDICAMENT FOR TREATMENT OF CADIAC HYPERTROPY AND PULMONARY HYPERTENSION” (KEY-PHARMA BIOMEDICAL INC., priority 2015, published 2018)

Legend:
[1] = system: sarcolemma KATP channel; experiment: Sarcolemma KATP channel effect
From the text: This invention disclosed exclusively that compound A per se had no effect on either sarcolemma or mitochondrial KATP channel. Instead, compound A is acting only as a sensitizer which render the KATP channel response greater to known KATP channel openers, such as pinacidil and to change of ATP.

[2] = system: BNP; experiment: Isoproterenol-induced cardiomyocyte hypertrophy (BNP RT-PCR, western blot, size); assay type: cell-based
From the text: BNP is an important marker for hypertrophy.

[3] = system: ROS (reactive oxygen species); experiment: ROS in cytosol and mitochondria of cardiomyocytes; assay type: cell-based; settings: cardiomyocytes hypertrophy
From the text: In this invention, we disclosed that compound A could suppress cardiomyocytes hypertrophy by reducing ROS (reactive oxygen species) in either cytosol and mitochondria in addition to the inhibition of PED, while classic PED inhibitor such as sildenafil has no such effects been reported in prior arts. This explains the superiority of compound A over sildenafil in suppressing hypertrophy and other diseases. This invention disclosed a new use of compound A as PED inhibitor with novel mechanism which is different than what been disclosed in prior art.

[4] = system: cerebral ischemia/reperfusion (I/R) injury; settings: within 24 hours; cited from earlier work
[5] = system: TAC rats; experiment: TAC-induced cardiac hypertrophy and cardiomyocyte dilation in rats; assay type: in vivo, Wistar rats; settings: for cardiac and myocyte hypertrophy: 3-week TAC groups; for increment of cardiomyocyte cross-sectional area: 3-week TAC; for HW / HW/BW: 3 wk TAC
Experimental: TAC between the innominate artery and the left carotid artery was conducted to induce pressure overload for 3 weeks (3-week TAC) or 9 weeks (9-week TAC). Sham control animals underwent the same operation, but without aortic constriction. All surgical procedures were performed with animals anesthetized with 3% pentobarbital sodium injected intraperitoneally (i.p. 40 mg/kg). During the surgery period, rats were intubated and ventilated with a rodent ventilator (Harvard Apparatus, Holliston, Mass., USA).
Both 3-week and 9-week TAC-exposed rats were randomly divided into five groups (n=8-10 rats) including a TAC vehicle control, COMPOUND A, low (TAC+COMPOUND A (L), 1 mg/kg/d), middle (TAC+COMPOUND A (M), 2 mg/kg/d), high (TAC+COMPOUND A (H), 8 mg/kg/d) dose group respectively, and sildenafil (TAC+Sil, 70 mg/kg/d) as a positive control group. Sham controls were all treated with vehicle. Acute and chronic mortality from the TAC procedure was <5%. The treat group was intra-gastric administrated with sodium salt of compound A which was solved in a mixture of saline and organic solvent of the same volume (1:1, 0.5 ml) and sildenafil which was solved in distilled water. All drugs and vehicle treatment were given twice a day after surgery for three days as designed. The animals were examined at 3 weeks and 9 weeks after surgery accordingly. At the end of the observation periods and after hemodynamic measurement in vivo, all animals were sacrificed and hearts were explanted for further Analyses.
Tissue sections of rat hearts were fixed in 10% neutral-buffered formalin, embedded in paraffin, cut into […] serial sections, and then stained with haematoxylin and eosin (H&E), picrosirius red or phalloidin. Nikon system and Zeiss confocal microscope were used to capture digital images. Stained with H&E was to evaluate cell size, stained with picrosirius red (sigma CA) was to test fibrosis using standard procedure and the amount of F-actin was stained with phalloidin. We determined cross sectional cell area and interstitial collagen fraction using computer-assisted image analysis (Image-Pro Plus software), with the observer blinded as to tissue source. At least four or five different hearts were quantified for analysis.
Adult Wistar rats were subjected to TAC for 3 weeks and treated with vehicle, COMPOUND A or sildenafil, respectively. […] The cardiac and myocyte hypertrophy were ameliorated by compound A or sildenafil in the 3-week TAC groups (Table 1).

[6] = system: neonatal rat cardiac fibroblasts; experiment: TGF-β induced proliferation of cardiac fibroblasts (MTT); assay type: cell-based; settings: cultured neonatal rat cardiac fibroblasts
From the text: This invention disclosed that compound A can prevent TGF-β induced proliferation in cultured neonatal rat cardiac fibroblasts. Furthermore, this invention disclosed that there were a significant increase in cGMP levels in compound A treated cardiac fibroblasts which is related to its anti-hypertrophy and anti-fibrosis roles.
Neonatal rat cardiac fibroblasts were isolated from 1-2-day-old Sprague-Dawley rats as described previously. Briefly, hearts from newborn 1-2-day-old Sprague-Dawley rats were minced on ice, and cells were isolated by trypsin incubation at 37° C. Non-cardiomyocytes were separated from the cardiomyocytes by differential pre-plating, and then cardiomyocytes were removed with fibroblasts seeded in culture dishes. The cells were passaged after 3 days, using a 0.05% trypsin solution. Cells were cultured in DEME/F12 medium with 5% fetal calf serum, and maintained at 37° C., 5% CO2 condition.
Viability of cardiac fibroblast in culture was assessed using the 3-(4,5-dimethylthiazol-2-yl)-2,5-diphenyltetrazolium bromide (MTT) method. The assay measures the ability of an active mitochondrial enzyme to reduce the MTT substrate (yellow to blue) in live cells. Isolated primary cardiac fibroblasts were plated in serum-free conditions on 96-well plates. […] Absorbance was measured at 460 nm.

[7] = system: cardiomyocyte from guinea pig; experiment: Electrophysiology in guinea pig cardiomyocyte after ischemia and reperfusion; assay type: cell-based
From the text: This invention also disclosed that in cardiomyocyte from guinea pig, that compound A can reduce elongated QT segment and increased QT variations, further it prevent prolonged action potential, decrease resting potential and suppressed Herg (Ikr) currents as result of ischemia and reperfusion. Compound A can also as an scavenger to reduce ROS (reactive oxygen species). Therefore, it can be used for treatment of abnormal ECG in clinic diagnosed with above or used for diseases or clinic procedures which may involve above mentioned mechanism.

[8] = system: embolic middle cerebral artery occlusion; settings: oral, seven consecutive days starting 2 h or 24 h after occlusion; cited from earlier work
[9] = system: mice exposed to chronic transverse aortic constriction; settings: cited from earlier work
[10] = system: hypoxia-induced PHT in rats; settings: chronic hypoxia; cited from earlier work
[11] = comp. A (L) 1 mg/kg/d intra-gastric

For `C[C@@]12CC[C@@H]3[C@@](CC[C@H]4[C@@]3(C)CCC[C@@]4(C)C(=O)O)(CC1=O)C2` [Compound A, (4α,8β,13β)-13-methyl-16-oxo-17-norkauran-18-oic acid], the “effect on sarcolemma KATP channel per se” value [1] was “had no effect”, the “KATP channel response to known openers such as pinacidil and to change of ATP” value ([1]; sarcolemma or mitochondrial not distinguished) was “sensitizer” and the “increase of BNP production and BNP mRNA expression” value ([2]; cardiomyocytes, isoproterenol stimulus) was “greatly reduce”. For the same compound, the “increased size of myocardium induced by isoproterenol” value ([2]; isoproterenol) was “significantly reduce”, the “ROS in cytosol and mitochondria” value [3] was “reducing” and the “protection against cerebral I/R injury” value [4] was “protect”. For the same compound, the “cardiac and myocyte hypertrophy” value [5] was “ameliorated”, the “increment of cardiomyocyte cross-sectional area” value (from here on “increment”) ([5]; 1 mg/kg) was 15.1% and the “increment” value ([5]; 2 mg/kg) was 4.1%. For the same compound, the “increase of cardiomyocyte cross-sectional area comparing to Sham rats” value ([5]; 3 weeks TAC rats, dose not stated (TAC alone 76%)) was 10%, the HW [5, 11] was 0.72 ± 0.03 g and the HW/BW [5, 11] was 2.862 ± 0.099 mg/g. The TGF-β induced proliferation [6] was “prevent”, the decrease resting potential [7] was “prevent” and the “elongated QT segment and increased QT variations” value [7] was “reduce”. The prolonged action potential [7] was “prevent” and the “suppressed Herg (Ikr) currents” value [7] was “prevent”.
For `CCCc1nn(C)c2c(=O)[nH]c(-c3cc(S(=O)(=O)N4CCN(C)CC4)ccc3OCC)nc12` [sildenafil, reference compound], the infarct volume [8] is listed as “without any effect”, the neurological recovery [8] is listed as “significantly enhanced” and the “cardiac and myocyte hypertrophy” value [5] is listed as “ameliorated”. The “increment” value ([5]; 70 mg/kg) was 16.3%, the HW ([5]; sildenafil 70 mg/kg/d) was 0.76 ± 0.04 g and the HW/BW ([5]; sildenafil 70 mg/kg/d) was 2.86 ± 0.117 mg/g. For the same compound, the “chamber and cardiomyocytes hypertrophy” value [9] was “suppresses” and the “rise in pulmonary artery pressure and vascular remodeling” value [10] was “attenuated”.
